Data reported in patent publication US5712417A, “Inhibitors of retroviral proteases” (Abbott Laboratories, priority 1989, dated 1998).
Structures can show the parent of a compound that is named as a salt.

Biological target: T1, HIV protease (Human immunodeficiency virus type 1 group M subtype B, UniProt P04585)
T1 construct: HIV protease consists of 99 amino acids and is evidently split off by itself from the pol polyprotein
Test: Inhibition of HIV protease (cleavage of H-Ser-Phe-Asn-Phe-Opr-Gln-Ile-OH, HPLC)
Format: biochemical
Details: inhibitor concentration at which the cleavage rate is halved; Ex. 99; read-out: IC50
How it was run: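 Substrate H-Ser-Phe-Asn-Phe-Opr-Gln-Ile-OH in MGTE buffer (MES, glycerol, Triton X-100, PMSF, pH 6) preincubated with inhibitor at 37 °C for 5-10 min, then reacted with protease at 35 °C for 2 h. RP18 HPLC at 215 nm; tetrapeptide fraction gives cleavage rate, IC50 where rate is halved.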

`CC(C)[C@H](NC(=O)[C@@H](CC(=O)N1CCC(N)CC1)Cc1ccccc1)C(=O)N[C@@H](Cc1ccccc1)[C@@H](O)[C@H](O)[C@H](Cc1ccccc1)NC(=O)[C@@H](NC(=O)[C@@H](CC(=O)N1CCC(N)CC1)Cc1ccccc1)C(C)C` [Example 99, N,N'-bis-<3-(4-Amino-1-piperidylcarbonyl-2R-benzyl-propionyl-L-valyl>-2S,5S-diamino-1,6-diphenylhexane-3R,4R-dioldihydrochloride] gave an IC50 of 15 nM.

Same assay, conditions: inhibitor concentration at which the cleavage rate is halved; pH 6, 2 hours; read-out: IC50

Going from `CC(C)[C@H](NC(=O)[C@@H](O)CCc1ccccc1)C(=O)N[C@@H](Cc1ccccc1)[C@H](O)[C@@H](O)[C@H](Cc1ccccc1)NC(=O)[C@@H](NC(=O)[C@@H](O)CCc1ccccc1)C(C)C` [Example 94, N,N'-bis-<(2S-Hydroxy-4-phenylbutyryl)-L-valyl>-2S,5S-diamino-1,6-diphenylhexane-3S,4S-diol] to `CC(C)[C@H](NC(=O)[C@@H](CC(=O)OC(C)(C)C)Cc1ccccc1)C(=O)N[C@@H](Cc1ccccc1)[C@@H](O)[C@H](O)[C@H](Cc1ccccc1)NC(=O)[C@@H](NC(=O)[C@@H](CC(=O)OC(C)(C)C)Cc1ccccc1)C(C)C` [Example 102, N,N'-bis-<(2R-Benzyl-3-tert.-butoxycarbonyl)-propionyl-L-valyl>-2S,5S-diamino-1,6-diphenylhexane-3R,4R-diol], the IC50 rises from 6.5 nM to 38 nM (5.8-fold). The first is the more potent here.

Compared with `CC(C)[C@H](NC(=O)C(Cc1ccccc1)CS(=O)(=O)N1CCC(N)CC1)C(=O)N[C@@H](Cc1ccccc1)[C@@H](O)[C@H](O)[C@H](Cc1ccccc1)NC(=O)[C@@H](NC(=O)C(Cc1ccccc1)CS(=O)(=O)N1CCC(N)CC1)C(C)C` (stereo partly drawn) [Example 97, N,N'-bis-<3-(4-Amino-1-piperidylsulfonyl)-2-benzyl-propionyl-L-valyl>-2S,5S-diamino-1,6-diphenylhexane-3R,4R-diol], `CC(C)[C@H](NC(=O)C(Cc1ccccc1)CS(=O)(=O)N1CCC(NC(=O)OC(C)(C)C)CC1)C(=O)N[C@@H](Cc1ccccc1)[C@@H](O)[C@H](O)[C@H](Cc1ccccc1)NC(=O)[C@@H](NC(=O)C(Cc1ccccc1)CS(=O)(=O)N1CCC(NC(=O)OC(C)(C)C)CC1)C(C)C` (stereo partly drawn) [Example 98, N,N'-bis-<2-Benzyl-3-(4-tert.-butoxycarbonylamino-1-piperidylsulfonyl)-propionyl-L-valyl>-2S,5S-diamino-1,6-diphenylhexane-3R,4R-diol] is 28-fold higher in IC50: 36 nM for the first, 1000 nM for the second. The first is the more potent here.

First: CC(C)[C@H](NC(=O)[C@@H](CC(=O)N1CCC(NC(=O)OC(C)(C)C)CC1)Cc1ccccc1)C(=O)N[C@@H](Cc1ccccc1)[C@@H](O)[C@H](O)[C@H](Cc1ccccc1)NC(=O)[C@@H](NC(=O)[C@@H](CC(=O)N1CCC(NC(=O)OC(C)(C)C)CC1)Cc1ccccc1)C(C)C [Example 100, N,N'-bis-<2R-Benzyl-3-(4-tert.-butoxycarbonylamino-1-piperidylcarbonyl)-propionyl-n-valyl>-2S,5S-diamino-1,6-diphenylhexane-3R,4R-diol dihydrochloride]
Second: CC(C)[C@H](NC(=O)[C@@H](CNC(=O)OC(C)(C)C)Cc1ccccc1)C(=O)N[C@@H](Cc1ccccc1)[C@@H](O)[C@H](O)[C@H](Cc1ccccc1)NC(=O)[C@@H](NC(=O)[C@@H](CNC(=O)OC(C)(C)C)Cc1ccccc1)C(C)C [Example 106, N,N,-bis-<(2R-Benzyl-3-tert.-butoxycarbonylamino)-propionly-L-valyl>-2S,5S-diamino-1,6-diphenylhexane-3R,4R-diol]
The IC50 of the first is 4.7-fold higher: 400 nM for the first, 85 nM for the second. The second is the more potent here.

Compound `CC(C)[C@H](NC(=O)[C@H](Cc1ccccc1)OC1O[C@H]([C@H](O)CO)[C@H](O)[C@@H]1O)C(=O)N[C@@H](Cc1ccccc1)[C@@H](O)[C@H](O)[C@H](Cc1ccccc1)NC(=O)[C@@H](NC(=O)[C@H](Cc1ccccc1)OC1O[C@H]([C@H](O)CO)[C@H](O)[C@@H]1O)C(C)C` (stereo partly drawn) [Example 107, N,N'-bis-<O-(D-Mannofuranosyl)-2S-hydroxy-3-phenyl-propionyl-L-valyl>-2S,5S-diamino-1,6-diphenylhexane-3R,4R-diol] has an IC50 of 8.5 nM.
